Tests used:
humans = assay: Spinal (vertebral) BMD, loading vs standard doses of bisphosphonates over one year; format: in vivo, human
Experimental: FIG. 4. illustrates the effects of standard recommended dose of risedronate (35 mg once a week), vs. loading dose of risedronate (for doses, see the section on oral administration of bisphosphonates) on vertebral BMD.
This will then be followed up with once weekly administration (i.e., infrequent administration) of a single dose of similar strength, what is currently used on a longer-term basis.

osteoporotic patients = conditions: intravenous injections 0.5 or 1.0 mg every 3 months for 3 years; cited from earlier work

SMILES: NCCCC(O)(P(=O)(O)O)P(=O)(O)O [alendronate, 4-amino-1-hydroxybutylidene-1,1-bisphosphonic acid monosodium trihydrate]
- Increase in spinal BMD (humans; alendronate loading dose, 3 months): +1.2%
- Increase in spinal BMD (humans; alendronate loading dose, 6 months): +3.6%
- Increase in spinal BMD (humans; alendronate loading dose, 12 months): +5.8%
- Increase in spinal BMD (humans; alendronate standard dose (70 mg once a week), 3 months): +0.4%
- Increase in spinal BMD (humans; alendronate standard dose (70 mg once a week), 6 months): +1.1%
- Increase in spinal BMD (humans; alendronate standard dose (70 mg once a week), 12 months): +4.5%

SMILES: O=P(O)(O)C(O)(Cc1cccnc1)P(=O)(O)O [risedronate, 1-hydroxy-2-(3-pyridinyl)-ethylidene-1,1-bisphosphonic acid]
- Increase in spinal BMD (humans; risedronate loading dose, 3 months): +1.5%
- Increase in spinal BMD (humans; risedronate loading dose, 6 months): +4.0%
- Increase in spinal BMD (humans; risedronate loading dose, 12 months): +5.6%
- Increase in spinal BMD (humans; risedronate standard dose (35 mg once a week), 3 months): +0.4%
- Increase in spinal BMD (humans; risedronate standard dose (35 mg once a week), 6 months): +2.2%
- Increase in spinal BMD (humans; risedronate standard dose (35 mg once a week), 12 months): +4.3%

SMILES: CCCCCN(C)CCC(O)(P(=O)(O)O)P(=O)(O)O [ibandronate, 1-hydroxy-3-(N-methyl-N-pentylamino)propylidene-1,1-bisphosphonic acid]
- Change in BMD (osteoporotic patients): moderate increase in BMD
- Change in incidence of new osteoporotic fractures (osteoporotic patients): small, but not significant, decrease
